In patent publication US20190133997A1, “ARTEMISININ ANALOG, AND USE, METHOD, AND COMPOSITION FOR PROMOTING LIPID CATABOLISM AND IMPROVING SUGAR METABOLISM” (FUDAN UNIVERSITY, priority 2016, published 2019):

Tests used:
[1] = system: 3T3-L1 white preadipocytes; assay: Artemether-induced browning of 3T3-L1 white preadipocytes during differentiation (morphology, UCP1 mRNA by Real time qPCR); type: cell-based; conditions: vs control, concentration-dependent tendency
Protocol: 2.5×10^5 3T3-L1 white preadipocytes were seeded in a 3.5 cm cell culture dish, and cultured for 3 days in a maintenance medium. Cells proliferated to contact inhibition. 48 hours after the contact inhibition was reached, the medium was changed to induced differentiation medium, and the induced differentiation mixture including 0.5 mMol/L 3-isobutyl-1-methylxanthine (Mix), 1 μMol/L dexamethasone (Dex) and 1 μg/ml insulin (Insulin) was added. The induced differentiation mixture is referred to as MDI for short. The day of adding MDI was defined as Day 0 of differentiation. After 2 days of culture in the above medium, fresh induced differentiation medium was replaced, and 1 μg/ml insulin was added to the medium. After another 2 days of culture, the fresh induced differentiation medium was replaced, and the medium was changed every other day until the culture was differentiated to Day 8. […]
3T3-L1 differentiated to mature was induced in a 3.5 cm culture dish, with the method of differentiation referring to Method 1.4.1. […] The precipitate was dissolved in 60 μl DEPC water, and quantified by Colibri Tepertec and stored at −80° C. […]
The relative amount of mRNA was calculated according to the AACT method, with 18S being used as an internal reference. […]

BMP4-directed C3H10T1/2 = assay: Artemether on BMP4-directed C3H10T1/2 differentiation (morphology, Western blot, MitoTracker Green); type: cell-based
Protocol: 7.5×10^5 C3H10T1/2 were seeded in a 3.5 cm cell culture dish, and cultured for 3-5 days in a maintenance medium. On the next day of seeding, BMP4 (at a final concentration of 20 ng/ml) was added to the medium to allow the cells to proliferate to contact inhibition. Two days after the contact inhibition was reached, the medium was changed to induced differentiation medium, and the induced mixture (0.5 mMol/L Mix, 1 μMol/L Dex, 1 ng/ml insulin, 100 nMol/L indometacin, 1 nM T3) was added at the same time. This day was defined as Day 0 of differentiation. After 2 days of induction, fresh induced differentiation medium was replaced, and 1 ng/ml insulin and 1 nMol/L T3 were added. After another 2 days of culture, the fresh medium was replaced every other day until the culture was differentiated to Day 8 at which time the cells were mature. At this time, the differentiated and mature cells were white adipocytes.
7.5×10^5 C3H10T1/2 were seeded in a 3.5 cm cell culture dish, and cultured for 3-5 days in a maintenance medium. On the next day of seeding, BMP7 (at a final concentration of 100 ng/ml) was added to the medium to allow the cells to proliferate to contact inhibition. Two days after the contact inhibition was reached, the medium was changed to induced differentiation medium, and the induced mixture (0.5 mM Mix, 1 μM Dex, 1 ng/ml insulin, 100 nM indometacin, 1 nM T3) was added at the same time. This day was defined as Day 0 of differentiation. After 2 days of induction, fresh induced differentiation medium was replaced, and 1 ng/ml insulin and 1 nM T3 were added. After another 2 days of culture, the fresh medium was replaced every other day until the culture was differentiated to Day 8 at which time the cells were mature. At this time, the cells differentiated to mature were brown adipocytes.
On Day 0 of differentiation, that is, when the induced differentiation mixture was added, the compound was added to the medium at a storage concentration of 10 mMol/L, and the final concentrations were […], respectively. When the fresh medium was replaced, the corresponding compound was supplemented, and the compound was always with the cells until the cells differentiated to mature.
C3H10T1/2 differentiated to mature was induced in a 3.5 cm culture dish, with the method of differentiation referring to Method 2.4.1. 300 μl Trizol was added to fully lyse the cells, and the lysate was transferred into a 1.5 ml centrifuge tube and heated at 100° C. for 10 min. The lysate was centrifuged at 13000 g for 10 min at 4° C., the lipid in the upper layer was removed, and the clarified lysate in the middle layer was transferred into a new centrifuge tube. 2.5 μl lysate was taken and quantified by BCA method, and 200 μl lysate was mixed with 50 μl loading buffer, heated at 100° C. for 10 min, and stored at −20° C. until use.
[…] C3HOT1/2 protein was loaded onto 10% polyacrylamide gel, and electrophoresis was carried out, with electrophoresis being carried out on base gel at 80V, and on separating gel at 100V, until the target band was separated. The protein was transferred to a PVDF membrane in an ice bath at 100 V for 100 min. After the transfer was completed, it was blocked for 1 hr in 5% skim milk prepared with TBST (TBS buffer+0.5% Tween), and incubated with specific antibodies overnight at 4° C. The next day, the PVDF membrane was washed three times with TBST at room temperature for 10 min, incubated with the corresponding secondary antibody at room temperature for 1 hr, then washed three times with TBST at the same condition as that of primary antibody, incubated with chemiluminescent reagent at room temperature for 1 min, detected with ImageQuant LAS4000 Mini Automatic chemiluminescence apparatus and exposed, and the results were recorded.
C3H10T1/2 differentiated to mature was induced in a 3.5 cm culture dish. The medium was removed and 1 ml PBS was added. […]

[2] = artemether 5, 10, 15 Mol/L, Western blot, β-actin reference, concentration-dependent tendency

Compound: CO[C@H]1O[C@@H]2O[C@@]3(C)CC[C@H]4[C@H](C)CC[C@@H]([C@H]1C)[C@@]24OO3 [artemether]
- mRNA level of UCP1 ([1]; 3T3-L1, different concentrations of ART, Real time qPCR, 18S reference): significantly up-regulated
- cell morphology of 3T3-L1 ([1]; artemether 5, 10 or from Day 0 of differentiation to maturity): exhibited typical brown adipocyte-like characteristics
- protein level of PGC1α (BMP4-directed C3H10T1/2; [2]): increased
- protein level of PRDM16 (BMP4-directed C3H10T1/2; [2]): increased
- protein level of UCP1 (BMP4-directed C3H10T1/2; [2]): increased
- protein level of CytoC (BMP4-directed C3H10T1/2; artemether 5, 10, 15 μMol/L, Western blot, β-actin reference, concentration-dependent tendency): increased
- mitochondrial biosynthesis (MitoTracker Green) (BMP4-directed C3H10T1/2; artemether 15 μMol/L): significantly enhanced
- cell morphology of BMP4-directed C3H10T1/2 (BMP4-directed C3H10T1/2; artemether 15 μMol/L during differentiation, similar to BMP7-directed cell morphology): exhibited brown fat-like characteristics
